From publication PMC11187126, “Structure and dynamics of the pyroglutamylated RF-amide peptide QRFP receptor GPR103” (Nature Communications, 2024)
Where two headings read alike, the source gives them in different places. No end group written: not given here.

Target: T1, GPR103 W286^6.48A (Homo sapiens, UniProt Q96P65, W286A)
T1 construct: we used human full-length QRFPR-encoding plasmids; expressed in transfected cells; host or cells: HEK293 cells (HEK293A in the flow cytometry section), pCAGGS vector
T1 sequence (Q96P65 1-431 W286A): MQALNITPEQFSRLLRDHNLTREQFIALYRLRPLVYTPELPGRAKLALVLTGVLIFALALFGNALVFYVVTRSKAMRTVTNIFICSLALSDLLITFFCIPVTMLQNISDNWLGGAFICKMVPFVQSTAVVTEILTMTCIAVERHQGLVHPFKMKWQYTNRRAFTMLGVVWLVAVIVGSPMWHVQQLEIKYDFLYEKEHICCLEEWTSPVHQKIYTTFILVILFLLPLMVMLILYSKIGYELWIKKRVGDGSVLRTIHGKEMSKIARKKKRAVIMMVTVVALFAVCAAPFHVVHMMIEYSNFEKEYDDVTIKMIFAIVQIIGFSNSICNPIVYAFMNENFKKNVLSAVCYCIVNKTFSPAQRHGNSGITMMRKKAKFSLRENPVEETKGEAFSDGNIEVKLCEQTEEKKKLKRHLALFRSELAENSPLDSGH
Test: TGFα shedding assay; Exp. level WT (1:20)
Assay type: cell-based

TSGPLGNLAEELNGYSRKKGGFSFRF-NH2 [QRFP26]
Emax (Exp. #1): 72.87 % WT
Emax (Exp. #2): 70.40 % WT
Emax (Exp. #3): 78.23 % WT
Emax (mean, read-out: Emax): 73.8%
EC50 (n = 3): 1120 nM
Emax (n = 3, read-out: Emax): 75.7 ± 1.9%
